Earlier results as cited in patent US6517854B2, “Antimicrobial sanitizing lotion with skin protection properties” (priority 1999, dated 2003).

What was measured:
gram-negative bacteria = conditions: organisms listed in the 1st table r28-r63
fungi and yeasts = conditions: organisms listed in the 1st table r65-r73
gram-positive bacteria = conditions: organisms listed in the 1st table r1-r26

Oc1cc(Cl)ccc1Oc1ccc(Cl)cc1Cl [TRICLOSAN, 2,4,4′-trichloro-2′-hydroxydiphenyl ether]
demonstrated efficacy: efficacy against gram-negative bacteria (gram-negative bacteria) | efficacy against fungi and yeasts (fungi and yeasts) | efficacy against gram-positive bacteria (gram-positive bacteria)
